Measured values: patent US11725011B2, “Bicyclic urea kinase inhibitors and uses thereof” (The Broad Institute, Inc., priority 2016, dated 2023)

Columns and labels:
SIK2 = SIK2 (Homo sapiens (Human), UniProt Q9H0K1); test: Percent activity against SIK2 at 1 μM; assay type: biochemical
ACVR1B = ACVR1B (Homo sapiens (Human), UniProt P36896); test: KINOMEscan; assay type: binding; settings: 1 uM
AKT2 = AKT2 (Homo sapiens (Human), UniProt P31751); test: KINOMEscan; assay type: binding; settings: 1 uM
AMPK-alpha2 = AMPK-alpha2 (Homo sapiens (Human), UniProt P54646); test: KINOMEscan; assay type: binding; settings: 1 uM
ANKK1 = ANKK1 (Homo sapiens (Human), UniProt Q8NFD2); test: KINOMEscan; assay type: binding; settings: 1 uM
BMPR2 = BMPR2 (Homo sapiens (Human), UniProt Q13873); test: KINOMEscan; assay type: binding; settings: 1 uM
BRAF (V600E) = BRAF (V600E) (Homo sapiens (Human), UniProt P15056, V600E); test: KINOMEscan; assay type: binding; settings: 1 uM
CDKL5 = CDKL5 (Homo sapiens (Human), UniProt O76039); test: KINOMEscan; assay type: binding; settings: 1 uM
CHEK1 = CHEK1 (Homo sapiens (Human), UniProt O14757); test: KINOMEscan; assay type: binding; settings: 1 uM
CLK4 = CLK4 (Homo sapiens (Human), UniProt Q9HAZ1); test: KINOMEscan; assay type: binding; settings: 1 uM
CSNK1D = CSNK1D (Homo sapiens (Human), UniProt P48730); test: KINOMEscan; assay type: binding; settings: 1 uM
DMPK = DMPK (Homo sapiens (Human), UniProt Q09013); test: KINOMEscan; assay type: binding; settings: 1 uM
DRAK1 = DRAK1 (Homo sapiens (Human), UniProt Q9UEE5); test: KINOMEscan; assay type: binding; settings: 1 uM
DYRK1B = DYRK1B (Homo sapiens (Human), UniProt Q9Y463); test: KINOMEscan; assay type: binding; settings: 1 uM
DYRK2 = DYRK2 (Homo sapiens (Human), UniProt Q92630); test: KINOMEscan; assay type: binding; settings: 1 uM
EPHA8 = EPHA8 (Homo sapiens (Human), UniProt P29322); test: KINOMEscan; assay type: binding; settings: 1 uM
FGFR3 (G697C) = FGFR3 (G697C) (Homo sapiens (Human), UniProt P22607, G697C); test: KINOMEscan; assay type: binding; settings: 1 uM
GCN2 (Kin.Dom.2, S808G) = GCN2 (Kin.Dom.2, S808G) (Homo sapiens (Human), UniProt Q9P2K8, S808G); test: KINOMEscan; assay type: binding; settings: 1 uM
INSR = INSR (Homo sapiens (Human), UniProt P06213); test: KINOMEscan; assay type: binding; settings: 1 uM
IRAK4 = IRAK4 (Homo sapiens (Human), UniProt Q9NWZ3); test: KINOMEscan; assay type: binding; settings: 1 uM
[1] = target: JAK2 (JH1domain-catalytic) (Homo sapiens (Human), UniProt O60674); test: KINOMEscan; assay type: binding; settings: 1 uM
JNK1 = JNK1 (Homo sapiens (Human), UniProt P45983); test: KINOMEscan; assay type: binding; settings: 1 uM
KIT (D816H) = KIT (D816H) (Homo sapiens (Human), UniProt P10721, D816H); test: KINOMEscan; assay type: binding; settings: 1 uM
KIT (V559D, V654A) = KIT (V559D, V654A) (Homo sapiens (Human), UniProt P10721, V559D/V654A); test: KINOMEscan; assay type: binding; settings: 1 uM
LATS2 = LATS2 (Homo sapiens (Human), UniProt Q9NRM7); test: KINOMEscan; assay type: binding; settings: 1 uM
LKB1 = LKB1 (Homo sapiens (Human), UniProt Q15831); test: KINOMEscan; assay type: binding; settings: 1 uM
MAST1 = MAST1 (Homo sapiens (Human), UniProt Q9Y2H9); test: KINOMEscan; assay type: binding; settings: 1 uM
MYLK4 = MYLK4 (Homo sapiens (Human), UniProt Q86YV6); test: KINOMEscan; assay type: binding; settings: 1 uM
NDR2 = NDR2 (Homo sapiens (Human), UniProt Q9Y2H1); test: KINOMEscan; assay type: binding; settings: 1 uM
NIK = NIK (Homo sapiens (Human), UniProt Q99558); test: KINOMEscan; assay type: binding; settings: 1 uM
PIK3C2B = PIK3C2B (Homo sapiens (Human), UniProt O00750); test: KINOMEscan; assay type: binding; settings: 1 uM
PIK3CA (Q546K) = PIK3CA (Q546K) (Homo sapiens (Human), UniProt P42336, Q546K); test: KINOMEscan; assay type: binding; settings: 1 uM
PIM3 = PIM3 (Homo sapiens (Human), UniProt Q86V86); test: KINOMEscan; assay type: binding; settings: 1 uM
PIP5K1A = PIP5K1A (Homo sapiens (Human), UniProt Q99755); test: KINOMEscan; assay type: binding; settings: 1 uM
PIP5K1C = PIP5K1C (Homo sapiens (Human), UniProt O60331); test: KINOMEscan; assay type: binding; settings: 1 uM
SRPK1 = SRPK1 (Homo sapiens (Human), UniProt Q96SB4); test: KINOMEscan; assay type: binding; settings: 1 uM
STK35 = STK35 (Homo sapiens (Human), UniProt Q8TDR2); test: KINOMEscan; assay type: binding; settings: 1 uM
TBK1 = TBK1 (Homo sapiens (Human), UniProt Q9UHD2); test: KINOMEscan; assay type: binding; settings: 1 uM
TLK2 = TLK2 (Homo sapiens (Human), UniProt Q86UE8); test: KINOMEscan; assay type: binding; settings: 1 uM
TRKC = TRKC (Homo sapiens (Human), UniProt Q16288); test: KINOMEscan; assay type: binding; settings: 1 uM

SIK2, sequence (Q9H0K1 whole entry): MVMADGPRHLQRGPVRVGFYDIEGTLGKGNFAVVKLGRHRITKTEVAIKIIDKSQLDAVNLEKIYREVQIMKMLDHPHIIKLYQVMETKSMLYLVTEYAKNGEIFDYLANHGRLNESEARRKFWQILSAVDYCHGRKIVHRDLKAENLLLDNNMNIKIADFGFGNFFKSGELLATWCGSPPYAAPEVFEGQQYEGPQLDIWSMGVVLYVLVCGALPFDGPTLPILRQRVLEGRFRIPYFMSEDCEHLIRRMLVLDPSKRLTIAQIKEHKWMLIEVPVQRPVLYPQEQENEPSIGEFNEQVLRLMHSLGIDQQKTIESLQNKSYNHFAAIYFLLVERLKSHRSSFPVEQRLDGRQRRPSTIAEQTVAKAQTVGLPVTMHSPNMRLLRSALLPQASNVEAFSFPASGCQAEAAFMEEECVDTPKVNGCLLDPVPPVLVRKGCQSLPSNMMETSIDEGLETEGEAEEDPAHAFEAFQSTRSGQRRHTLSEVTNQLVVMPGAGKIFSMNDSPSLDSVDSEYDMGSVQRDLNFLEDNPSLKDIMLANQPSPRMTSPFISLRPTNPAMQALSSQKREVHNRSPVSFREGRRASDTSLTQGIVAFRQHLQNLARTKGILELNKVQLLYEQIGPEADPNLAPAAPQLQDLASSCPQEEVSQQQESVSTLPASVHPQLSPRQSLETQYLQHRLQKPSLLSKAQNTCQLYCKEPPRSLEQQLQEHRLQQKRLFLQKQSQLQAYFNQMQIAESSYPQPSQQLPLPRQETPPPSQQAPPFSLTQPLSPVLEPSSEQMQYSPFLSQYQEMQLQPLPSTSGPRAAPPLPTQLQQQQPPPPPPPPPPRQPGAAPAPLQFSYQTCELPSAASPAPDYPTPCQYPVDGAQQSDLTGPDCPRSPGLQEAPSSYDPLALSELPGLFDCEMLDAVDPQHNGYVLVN
AKT2, sequence (P31751 whole entry): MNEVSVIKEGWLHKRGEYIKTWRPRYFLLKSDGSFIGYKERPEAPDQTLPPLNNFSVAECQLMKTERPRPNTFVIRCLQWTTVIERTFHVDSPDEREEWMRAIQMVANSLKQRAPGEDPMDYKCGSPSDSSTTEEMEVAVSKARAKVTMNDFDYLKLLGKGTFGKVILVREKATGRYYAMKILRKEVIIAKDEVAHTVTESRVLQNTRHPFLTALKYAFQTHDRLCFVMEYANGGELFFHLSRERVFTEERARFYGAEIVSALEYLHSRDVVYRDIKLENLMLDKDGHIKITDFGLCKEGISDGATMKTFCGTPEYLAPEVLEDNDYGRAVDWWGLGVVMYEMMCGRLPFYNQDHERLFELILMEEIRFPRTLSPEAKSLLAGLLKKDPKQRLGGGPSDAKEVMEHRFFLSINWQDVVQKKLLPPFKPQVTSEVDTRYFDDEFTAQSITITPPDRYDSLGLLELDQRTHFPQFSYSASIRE
DYRK2, sequence (Q92630 whole entry): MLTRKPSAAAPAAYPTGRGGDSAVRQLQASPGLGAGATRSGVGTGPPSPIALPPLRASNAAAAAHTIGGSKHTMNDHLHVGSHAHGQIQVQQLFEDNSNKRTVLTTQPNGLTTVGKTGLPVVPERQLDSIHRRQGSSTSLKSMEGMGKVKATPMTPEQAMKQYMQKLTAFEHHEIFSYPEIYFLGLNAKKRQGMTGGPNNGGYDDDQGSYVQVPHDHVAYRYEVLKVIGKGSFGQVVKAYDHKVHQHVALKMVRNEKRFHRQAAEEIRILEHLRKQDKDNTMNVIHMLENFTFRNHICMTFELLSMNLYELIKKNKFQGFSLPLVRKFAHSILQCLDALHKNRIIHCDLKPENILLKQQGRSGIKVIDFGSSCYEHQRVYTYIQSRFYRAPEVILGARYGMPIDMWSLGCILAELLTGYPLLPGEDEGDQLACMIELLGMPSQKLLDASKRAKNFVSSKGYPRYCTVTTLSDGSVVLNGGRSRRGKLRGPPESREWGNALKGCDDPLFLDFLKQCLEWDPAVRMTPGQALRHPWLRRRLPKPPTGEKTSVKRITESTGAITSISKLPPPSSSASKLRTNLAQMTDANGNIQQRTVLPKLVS
TBK1, sequence (Q9UHD2 whole entry): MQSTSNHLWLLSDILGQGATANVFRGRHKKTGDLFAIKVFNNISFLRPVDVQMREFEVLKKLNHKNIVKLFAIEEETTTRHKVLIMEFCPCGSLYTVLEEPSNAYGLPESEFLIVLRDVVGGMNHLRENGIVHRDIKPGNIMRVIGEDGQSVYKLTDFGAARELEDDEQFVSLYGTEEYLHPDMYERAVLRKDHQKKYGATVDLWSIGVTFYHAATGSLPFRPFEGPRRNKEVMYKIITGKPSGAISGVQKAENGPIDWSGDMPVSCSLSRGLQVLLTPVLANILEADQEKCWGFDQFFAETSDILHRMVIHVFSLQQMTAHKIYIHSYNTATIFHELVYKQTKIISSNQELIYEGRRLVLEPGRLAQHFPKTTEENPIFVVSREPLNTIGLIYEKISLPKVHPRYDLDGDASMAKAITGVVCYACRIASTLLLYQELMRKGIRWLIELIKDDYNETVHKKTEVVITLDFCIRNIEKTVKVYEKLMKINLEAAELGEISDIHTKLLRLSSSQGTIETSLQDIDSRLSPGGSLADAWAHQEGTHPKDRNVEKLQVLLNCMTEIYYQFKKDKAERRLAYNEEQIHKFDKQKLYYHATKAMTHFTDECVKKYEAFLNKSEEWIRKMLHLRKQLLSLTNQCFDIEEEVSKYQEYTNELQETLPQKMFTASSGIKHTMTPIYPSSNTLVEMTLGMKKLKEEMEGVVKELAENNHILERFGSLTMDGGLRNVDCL
STK35, sequence (Q8TDR2 whole entry): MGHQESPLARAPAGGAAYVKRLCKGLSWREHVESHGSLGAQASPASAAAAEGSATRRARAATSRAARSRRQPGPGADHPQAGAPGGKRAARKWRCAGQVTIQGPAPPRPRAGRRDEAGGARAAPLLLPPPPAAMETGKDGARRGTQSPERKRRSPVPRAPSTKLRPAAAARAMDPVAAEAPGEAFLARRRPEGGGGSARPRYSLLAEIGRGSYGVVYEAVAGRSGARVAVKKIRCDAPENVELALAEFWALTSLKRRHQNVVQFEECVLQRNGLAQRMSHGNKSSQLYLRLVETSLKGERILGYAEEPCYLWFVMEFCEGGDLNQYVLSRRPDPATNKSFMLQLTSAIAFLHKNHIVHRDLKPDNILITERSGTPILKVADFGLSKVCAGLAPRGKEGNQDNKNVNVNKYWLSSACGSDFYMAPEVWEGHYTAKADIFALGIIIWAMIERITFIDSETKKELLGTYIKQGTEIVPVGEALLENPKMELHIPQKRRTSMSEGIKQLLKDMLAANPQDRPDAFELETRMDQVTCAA
CDKL5, sequence (O76039 whole entry): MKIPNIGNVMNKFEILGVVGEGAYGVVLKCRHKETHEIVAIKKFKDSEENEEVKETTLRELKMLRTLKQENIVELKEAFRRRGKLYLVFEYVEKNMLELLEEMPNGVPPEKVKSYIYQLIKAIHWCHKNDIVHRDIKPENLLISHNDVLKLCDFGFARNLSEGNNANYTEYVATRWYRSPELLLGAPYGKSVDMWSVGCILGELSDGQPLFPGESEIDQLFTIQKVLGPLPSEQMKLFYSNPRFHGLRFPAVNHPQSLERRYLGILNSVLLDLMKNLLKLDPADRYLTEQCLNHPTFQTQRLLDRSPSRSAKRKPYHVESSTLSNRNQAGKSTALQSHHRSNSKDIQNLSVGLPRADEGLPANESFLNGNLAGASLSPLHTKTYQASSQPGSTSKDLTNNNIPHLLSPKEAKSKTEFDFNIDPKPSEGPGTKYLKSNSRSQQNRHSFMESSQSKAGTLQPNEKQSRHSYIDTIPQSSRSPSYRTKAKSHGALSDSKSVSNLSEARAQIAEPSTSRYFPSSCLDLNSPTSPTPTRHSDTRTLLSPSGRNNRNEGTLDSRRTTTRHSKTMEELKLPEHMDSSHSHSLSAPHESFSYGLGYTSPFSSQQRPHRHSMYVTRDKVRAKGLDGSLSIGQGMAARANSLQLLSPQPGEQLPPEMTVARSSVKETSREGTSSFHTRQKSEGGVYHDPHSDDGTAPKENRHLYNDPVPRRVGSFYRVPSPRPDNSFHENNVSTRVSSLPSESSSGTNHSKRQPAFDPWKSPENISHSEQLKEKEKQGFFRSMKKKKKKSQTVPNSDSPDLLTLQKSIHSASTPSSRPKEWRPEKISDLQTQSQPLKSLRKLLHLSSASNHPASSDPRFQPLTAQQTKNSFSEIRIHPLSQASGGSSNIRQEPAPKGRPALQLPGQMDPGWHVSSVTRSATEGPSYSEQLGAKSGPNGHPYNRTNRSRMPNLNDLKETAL
CHEK1, sequence (O14757 whole entry): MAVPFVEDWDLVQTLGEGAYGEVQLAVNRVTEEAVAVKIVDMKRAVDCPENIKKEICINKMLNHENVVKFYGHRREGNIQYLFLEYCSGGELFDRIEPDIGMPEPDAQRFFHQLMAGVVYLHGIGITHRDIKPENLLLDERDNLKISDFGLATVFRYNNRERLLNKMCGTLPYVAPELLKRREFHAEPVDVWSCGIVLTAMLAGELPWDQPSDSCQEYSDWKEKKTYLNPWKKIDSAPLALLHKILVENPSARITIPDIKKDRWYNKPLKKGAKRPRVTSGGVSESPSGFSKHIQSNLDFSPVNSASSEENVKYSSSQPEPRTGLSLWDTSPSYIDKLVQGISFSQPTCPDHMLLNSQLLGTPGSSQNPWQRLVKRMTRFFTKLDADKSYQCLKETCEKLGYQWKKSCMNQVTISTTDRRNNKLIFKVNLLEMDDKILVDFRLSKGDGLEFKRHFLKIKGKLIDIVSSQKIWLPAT

COc1ccc(N2C(=O)N(c3c(C)cccc3C)Cc3cnc(Nc4ccc(N5CCN(C)CC5)cc4)nc32)c(OC)c1 [HG-11-136-01]
Enzyme activity at 1 μM (%) SIK2 (SIK2; 1 μM): 2.8% | SIK2 % ACTIVITY (SIK2; compound at 1 μM, approximate Km for ATP): 2.8% | KINOMEscan ACVR1B (ACVR1B): 9.6 | KINOMEscan AKT2 (AKT2): 100 | KINOMEscan AMPK-alpha2 (AMPK-alpha2): 30 | KINOMEscan ANKK1 (ANKK1): 68 | KINOMEscan BMPR2 (BMPR2): 77 | KINOMEscan BRAF (V600E) (BRAF (V600E)): 13 | KINOMEscan CDKL5 (CDKL5): 98 | KINOMEscan CHEK1 (CHEK1): 82 | KINOMEscan CLK4 (CLK4): 33 | KINOMEscan CSNK1D (CSNK1D): 100 | KINOMEscan DMPK (DMPK): 88 | KINOMEscan DRAK1 (DRAK1): 96 | KINOMEscan DYRK1B (DYRK1B): 60 | KINOMEscan DYRK2 (DYRK2): 5 | KINOMEscan EPHA8 (EPHA8): 0.9 | KINOMEscan FGFR3 (G697C) (FGFR3 (G697C)): 1.4 | KINOMEscan GCN2 (Kin.Dom.2, S808G) (GCN2 (Kin.Dom.2, S808G)): 0.75 | KINOMEscan INSR (INSR): 48 | KINOMEscan IRAK4 (IRAK4): 49 | KINOMEscan JAK2 (JH1domain-catalytic) [1]: 0.75 | KINOMEscan JNK1 (JNK1): 23 | KINOMEscan KIT (D816H) (KIT (D816H)): 6 | KINOMEscan KIT (V559D, V654A) (KIT (V559D, V654A)): 2.2 | KINOMEscan LATS2 (LATS2): 60 | KINOMEscan LKB1 (LKB1): 69 | KINOMEscan MAST1 (MAST1): 62 | KINOMEscan MYLK4 (MYLK4): 60 | KINOMEscan NDR2 (NDR2): 28 | KINOMEscan NIK (NIK): 36 | KINOMEscan PIK3C2B (PIK3C2B): 0.55 | KINOMEscan PIK3CA (Q546K) (PIK3CA (Q546K)): 94 | KINOMEscan PIM3 (PIM3): 90 | KINOMEscan PIP5K1A (PIP5K1A): 14 | KINOMEscan PIP5K1C (PIP5K1C): 70 | KINOMEscan SRPK1 (SRPK1): 16 | KINOMEscan STK35 (STK35): 49 | KINOMEscan TBK1 (TBK1): 37 | KINOMEscan TLK2 (TLK2): 92 | KINOMEscan TRKC (TRKC): 71
